Values quoted from earlier work as cited in article PMC5263201, “GABAA receptor occupancy by subtype selective GABAAα2,3 modulators: PET studies in humans” (Psychopharmacology, 2016).
Read-outs that look alike come from different tables or passages of the source.

Experiments:
[1] = test system: GABAA α5β3γ2; set-up: method as in Christian et al 2015; conditions: 1µM test concentration, GABA EC10, % of 1 µM diazepam, mean ±SE, ref Christian et al 2015; cited from earlier work
[2] = AZD6280; ref parallel multiple ascending dose study; cited from earlier work
[3] = set-up: method as in AstraZeneca Single Ascending Dose studies; conditions: 6 subjects, ref AstraZeneca Single Ascending Dose studies, cited from earlier work

CCCNC(=O)c1nnc2c(-c3cc(OC)ccc3OC)cccc2c1N [AZD6280]
Relative efficacy (%DZ) α5 [1]: 8±2%
maximum tolerated dose (MTD) [2]: 40 mg

CCCNC(=O)c1nnc2c(-c3c(F)cccc3OC)cccc2c1N [AZD7325]
Number of subjects with at least one adverse event ([3]; AZD7325 0.2 mg): 2 (33) Number (%) of patients
anxiety ([3]; AZD7325 0.2 mg): 0 Number (%) of patients
dizziness ([3]; AZD7325 0.2 mg): 0 Number (%) of patients
euphoric mood ([3]; AZD7325 0.2 mg): 0 Number (%) of patients
hypoaesthesia ([3]; AZD7325 0.2 mg): 0 Number (%) of patients
paraesthesia ([3]; AZD7325 0.2 mg): 0 Number (%) of patients
somnolence ([3]; AZD7325 0.2 mg): 0 Number (%) of patients
Number of subjects with at least one adverse event ([3]; AZD7325 1mg): 2 (33) Number (%) of patients
anxiety ([3]; AZD7325 1mg): 0 Number (%) of patients
dizziness ([3]; AZD7325 1mg): 0 Number (%) of patients
euphoric mood ([3]; AZD7325 1mg): 0 Number (%) of patients
hypoaesthesia ([3]; AZD7325 1mg): 0 Number (%) of patients
paraesthesia ([3]; AZD7325 1mg): 0 Number (%) of patients
somnolence ([3]; AZD7325 1mg): 0 Number (%) of patients
Number of subjects with at least one adverse event ([3]; AZD7325 5mg): 4 (67) Number (%) of patients
anxiety ([3]; AZD7325 5mg): 0 Number (%) of patients
dizziness ([3]; AZD7325 5mg): 0 Number (%) of patients
euphoric mood ([3]; AZD7325 5mg): 0 Number (%) of patients
hypoaesthesia ([3]; AZD7325 5mg): 1 (17) Number (%) of patients
paraesthesia ([3]; AZD7325 5mg): 0 Number (%) of patients
somnolence ([3]; AZD7325 5mg): 1 (17) Number (%) of patients
Number of subjects with at least one adverse event ([3]; AZD7325 10 mg): 2 (33) Number (%) of patients
anxiety ([3]; AZD7325 10 mg): 0 Number (%) of patients
dizziness ([3]; AZD7325 10 mg): 2 (33) Number (%) of patients
euphoric mood ([3]; AZD7325 10 mg): 0 Number (%) of patients
hypoaesthesia ([3]; AZD7325 10 mg): 0 Number (%) of patients
paraesthesia ([3]; AZD7325 10 mg): 0 Number (%) of patients
somnolence ([3]; AZD7325 10 mg): 0 Number (%) of patients
Number of subjects with at least one adverse event ([3]; AZD7325 20 mg): 1 (17) Number (%) of patients
anxiety ([3]; AZD7325 20 mg): 0 Number (%) of patients
dizziness ([3]; AZD7325 20 mg): 0 Number (%) of patients
euphoric mood ([3]; AZD7325 20 mg): 1 (17) Number (%) of patients
hypoaesthesia ([3]; AZD7325 20 mg): 0 Number (%) of patients
paraesthesia ([3]; AZD7325 20 mg): 0 Number (%) of patients
somnolence ([3]; AZD7325 20 mg): 0 Number (%) of patients
Number of subjects with at least one adverse event ([3]; AZD7325 30 mg): 3 (50) Number (%) of patients
anxiety ([3]; AZD7325 30 mg): 0 Number (%) of patients
dizziness ([3]; AZD7325 30 mg): 1 (17) Number (%) of patients
euphoric mood ([3]; AZD7325 30 mg): 1 (17) Number (%) of patients
hypoaesthesia ([3]; AZD7325 30 mg): 0 Number (%) of patients
paraesthesia ([3]; AZD7325 30 mg): 0 Number (%) of patients
somnolence ([3]; AZD7325 30 mg): 1 (17) Number (%) of patients
Number of subjects with at least one adverse event ([3]; AZD7325 50 mg): 1 (50) Number (%) of patients
anxiety ([3]; AZD7325 50 mg): 0 Number (%) of patients
dizziness ([3]; AZD7325 50 mg): 0 Number (%) of patients
euphoric mood ([3]; AZD7325 50 mg): 0 Number (%) of patients
hypoaesthesia ([3]; AZD7325 50 mg): 0 Number (%) of patients
paraesthesia ([3]; AZD7325 50 mg): 0 Number (%) of patients
somnolence ([3]; AZD7325 50 mg): 0 Number (%) of patients
Number of subjects with at least one adverse event ([3]; AZD7325 75 mg): 4 (67) Number (%) of patients
anxiety ([3]; AZD7325 75 mg): 0 Number (%) of patients
dizziness ([3]; AZD7325 75 mg): 0 Number (%) of patients
euphoric mood ([3]; AZD7325 75 mg): 3 (50) Number (%) of patients
hypoaesthesia ([3]; AZD7325 75 mg): 0 Number (%) of patients
paraesthesia ([3]; AZD7325 75 mg): 1 (17) Number (%) of patients
somnolence ([3]; AZD7325 75 mg): 0 Number (%) of patients
Number of subjects with at least one adverse event ([3]; AZD7325 100 mg): 4 (67) Number (%) of patients
anxiety ([3]; AZD7325 100 mg): 1 (17) Number (%) of patients
dizziness ([3]; AZD7325 100 mg): 2 (33) Number (%) of patients
euphoric mood ([3]; AZD7325 100 mg): 1 (17) Number (%) of patients
hypoaesthesia ([3]; AZD7325 100 mg): 0 Number (%) of patients
paraesthesia ([3]; AZD7325 100 mg): 0 Number (%) of patients
somnolence ([3]; AZD7325 100 mg): 1 (17) Number (%) of patients
